The text below walks through data of patent US12187703B2, “Crystalline forms of N-(3-(2-(2-hydroxyethoxy)-6-morpholinopyridin-4-yl)-4-methvlphenyl)-2 (trifluoromethyl)isonicotinamide as Raf inhibitors for the treatment of cancer” (NOVARTIS AG, priority 2019, dated 2025).

A short description of this data set: Humidity exposure of amorphous form. Type of data set: physicochemical. The conditions noted are these: ambient humidity or 92% RH.

Turning to `Cc1ccc(NC(=O)c2ccnc(C(F)(F)F)c2)cc1-c1cc(OCCO)nc(N2CCOCC2)c1` [amorphous form, N-(3-(2-(2-hydroxyethoxy)-6-morpholinopyridin-4-yl)-4-methylphenyl)-2-(trifluoromethyl)isonicotinamide], the “Physical form stability under humidity” value is “remains stable and does not convert to HA”.
